Reference: patent US20250179027A1, “CYCLOALKYL OR HETEROCYCLYL SUBSTITUTED HETEROARYL COMPOUND, AND COMPOSITION AND USE THEREOF” (Shenzhen TargetRx, Inc., priority 2022, published 2025)

How the values were obtained:
[1] = target: T1, BTK kinase (Homo sapiens, UniProt Q06187); test: HTRF kinase activity inhibition assay, BTK; assay type: biochemical; settings: HTRF TK kit
T1 construct: purchased Invitrogen PV3587
Text: (§1) In this assay, the HTRF TK Kit (Catalog No. 62TKOPEC) provided by Cisbio was used to detect the inhibitory activity of compounds on BTK kinase and BTK C481S kinase and the selectivity of compounds relative to EGFR, ITK and TEC kinases.
(§2) Reagents and consumables: BTK kinase (Invitrogen, Catalog No. PV3587), BTK C481S (Carna, Product No. 08-547), ITK (Carna, Product No. 08-181), EGFR (Carna, Product No. 08-115), TEC (Carna, Product No. 08-182), HTRF-TK kit (Cisbio, Product No. 62TKOPEC), MgCl2 (Sigma, Product No. M1028), MnCl2 (Sigma, Product No. M1787), DTT (Sigma, Product No. D0632), ATP (Sigma, Product No. A7699-1 g), DMSO (Sigma, Product No. D2650), 384-well plate (PE, Product No. 6008280).
(§3) The entire operation steps were carried out on ice, and the total reaction volume was 10 μL. The compound (4 μL), substrate and ATP (4 μL), kinase (2 μL) were added in sequence to a 384-well plate, and shaked for 30 seconds. After an appropriate time at room temperature, the detection reagent was added. After 1 hour at room temperature, the plate was detected with a microplate reader. The specific steps were as follows: • a) 1× kinase buffer solution required for kinase detection was calculated according to the amount of the detection compound, and prepared as needed; • b) compounds with 2.5×working concentration were prepared, the 100 times gradient concentration solution of compounds was diluted by 4 μL to the desired concentration, mixed well, and added to each well at 4 μL per well; • c) 5×working concentration of substrate and ATP were prepared, mixed in a ratio of 1:1 before adding to a 384-well plate, and added to each well at 4 μL per well; • d) 5×working concentration of kinase was prepared, and 2 μL was added to each well; • e) the plate was shaked on a microplate oscillator for 30 seconds, sealed with a sealing membrane, and reacted at room temperature for an appropriate time; • f) 4×working concentrations of streptavidin XL-665 and TK antibody-cryptate compound were prepared, mixed in a ratio of 1:1 before adding to a 384-well plate, and added to each well at 10 μL per well; • g) the plate was read after reacting at room temperature for 1 hour; • h) the wells with only substrate, ATP and 1% DMSO added but no kinase were blank control wells, and the wells with only substrate, ATP, 1% DMSO and kinase were positive control wells.
(§4) Readings: The values of 620 nm (cryptate) and 665 nm (XL665) were read with a BioTek Synerg Neo2 microplate reader, the ratio of 665/620 per well was calculated, and the data were exported. Data analysis: IC50 was calculated using GraphPad Prism 7.0 software. The following nonlinear fitting formula was used to obtain the IC50 (half inhibitory concentration) of compounds:
(§5) [formula] • X: Compound concentration log value • Y: Inhibition rate (% inhibition)
(§6) The kinase inhibition rate (% inhibition rate) was calculated as: […]

[2] = target: T2, TEC (Homo sapiens, UniProt P42680); test: HTRF kinase activity inhibition assay, TEC; assay type: biochemical; settings: HTRF TK kit
T2 construct: purchased Carna 08-182
T2 sequence (P42680 1-631): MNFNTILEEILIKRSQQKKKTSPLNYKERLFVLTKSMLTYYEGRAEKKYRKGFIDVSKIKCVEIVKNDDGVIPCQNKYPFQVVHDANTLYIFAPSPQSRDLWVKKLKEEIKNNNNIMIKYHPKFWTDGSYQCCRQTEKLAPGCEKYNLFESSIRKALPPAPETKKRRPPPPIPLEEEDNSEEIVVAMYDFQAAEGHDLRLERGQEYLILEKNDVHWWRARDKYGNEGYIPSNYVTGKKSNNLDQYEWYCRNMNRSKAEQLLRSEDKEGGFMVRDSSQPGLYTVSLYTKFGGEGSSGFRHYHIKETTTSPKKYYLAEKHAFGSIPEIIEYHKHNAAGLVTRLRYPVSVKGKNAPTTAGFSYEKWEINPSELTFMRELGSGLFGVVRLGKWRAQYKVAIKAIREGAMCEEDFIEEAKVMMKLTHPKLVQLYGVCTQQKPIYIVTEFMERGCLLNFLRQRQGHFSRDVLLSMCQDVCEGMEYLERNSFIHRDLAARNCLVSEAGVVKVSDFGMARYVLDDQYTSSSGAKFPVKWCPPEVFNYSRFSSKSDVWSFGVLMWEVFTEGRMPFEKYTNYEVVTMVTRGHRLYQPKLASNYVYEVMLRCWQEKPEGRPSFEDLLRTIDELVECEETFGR
Text: as §1, §2, §3, §4, §5, §6

[3] = target: T3, EGFR (Homo sapiens, UniProt P00533); test: HTRF kinase activity inhibition assay, EGFR; assay type: biochemical; settings: HTRF TK kit
T3 construct: purchased Carna 08-115
T3 sequence (P00533 669-1210 limits assumed): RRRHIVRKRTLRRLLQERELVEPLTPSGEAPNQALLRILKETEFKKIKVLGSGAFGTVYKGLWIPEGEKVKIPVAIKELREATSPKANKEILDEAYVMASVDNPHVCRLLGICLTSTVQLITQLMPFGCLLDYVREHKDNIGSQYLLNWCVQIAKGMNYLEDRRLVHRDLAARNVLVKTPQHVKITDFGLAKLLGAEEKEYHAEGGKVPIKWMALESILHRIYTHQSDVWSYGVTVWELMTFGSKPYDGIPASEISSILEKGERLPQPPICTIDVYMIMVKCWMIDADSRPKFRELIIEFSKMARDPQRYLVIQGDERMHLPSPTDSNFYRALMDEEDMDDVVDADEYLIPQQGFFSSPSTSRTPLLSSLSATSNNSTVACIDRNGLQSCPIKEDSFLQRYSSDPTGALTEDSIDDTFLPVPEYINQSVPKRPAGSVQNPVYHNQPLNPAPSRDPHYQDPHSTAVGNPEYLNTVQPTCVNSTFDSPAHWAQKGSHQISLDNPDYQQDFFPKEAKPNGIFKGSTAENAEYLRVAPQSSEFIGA
Text: as §1, §2, §3, §4, §5, §6

[4] = target: T4, phosphorylated BTK Y223 in NIH/3T3 BTK WT cells (Homo sapiens, UniProt Q06187); test: Phosphor-BTK(Y223) assay, NIH/3T3 BTK WT cells; assay type: cell-based; settings: phosphorylated BTK Y223, NIH/3T3 BTK WT cells; read-out: NIH/3T3 BTK-WT pBTK IC50
T4 construct: expressed in transfected cells; host or cells: NIH/3T3 (mouse fibroblasts) engineered to express BTK WT
T4 sequence (Q06187 whole entry): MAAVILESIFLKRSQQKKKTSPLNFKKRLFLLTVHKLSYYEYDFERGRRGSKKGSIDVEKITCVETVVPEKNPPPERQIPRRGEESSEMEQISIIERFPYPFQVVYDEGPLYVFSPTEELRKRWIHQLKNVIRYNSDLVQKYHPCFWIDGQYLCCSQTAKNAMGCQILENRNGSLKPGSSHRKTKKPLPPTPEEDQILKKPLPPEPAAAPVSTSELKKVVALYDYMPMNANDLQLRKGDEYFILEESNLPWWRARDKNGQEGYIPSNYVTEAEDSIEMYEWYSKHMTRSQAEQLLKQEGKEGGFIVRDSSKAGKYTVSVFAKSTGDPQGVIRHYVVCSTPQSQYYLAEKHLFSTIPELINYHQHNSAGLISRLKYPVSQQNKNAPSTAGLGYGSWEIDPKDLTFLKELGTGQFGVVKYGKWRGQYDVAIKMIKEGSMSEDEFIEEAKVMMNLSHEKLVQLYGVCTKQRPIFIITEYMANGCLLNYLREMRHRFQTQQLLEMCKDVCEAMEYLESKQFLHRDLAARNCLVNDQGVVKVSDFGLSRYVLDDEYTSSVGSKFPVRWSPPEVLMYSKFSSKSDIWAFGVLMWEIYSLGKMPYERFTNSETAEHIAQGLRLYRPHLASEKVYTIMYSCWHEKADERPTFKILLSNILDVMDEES
Protocol: The purpose of this assay is to simply, quickly and directly detect the endogenous level of BTK in cells. The specific assay steps are as follows: Day 1: NIH/3T3 BTK WT cells (7.5 k/well) and NIH/3T3 BTK C481S cells (10 k/well) were plated in 96-well plates, respectively, and cultured overnight at 37° C. and 5% CO2.
• 1. A 3-fold final concentration gradient dilution of the compound was prepared, and 50 μL was added to 100 μL of cell culture; 0.5% DMSO was used as a positive control for cell growth. • 2. The plate was incubated at 37° C., 5% CO2 for 0.5 h. • 3. Na3VO4 with a final concentration of 1 mM was added, and incubated at 37° C. and 5% CO2 for 2 hours. • 4. During the incubation, the following reagents were prepared: 1× added lysis buffer: 3 vol ddH2O+1 vol 4× lysis buffer+100× blocking reagent. p-BTK (Y223) cryptate-antibody and p-BTK (Y223) d2-antibody working solutions: 1 volume of each cryopreserved antibody (stored at −20° C.) was added to 19 times volumes of assay buffer (stored at 4° C.). • 5. After the incubation, the medium was removed and 50 μL of 1× added lysis buffer was added; The mixture was centrifuged at 500 rpm for 30 min at room temperature. • 6. The lysate was mixed well and 16 μL was transferred to a 384-well plate; 1× added lysis buffer was used as a blank control. • 7. 4 μL of pre-mixed working solutions of the two antibodies (cryptate Ab:d2 Ab=1:1) were added and the plate was sealed. • 8. The plate was incubated overnight at room temperature.
Biotek cytation3.0 microplate reader was used to read the plate at 665 nm and 620 nm, and the ratio of 665/620 nm per well was calculated.
IC50 was calculated using GraphPad Prism 7.0 software.
The following nonlinear fitting formula was used to obtain the phosphorylated BTK Y223 IC50 (half phosphorylation inhibitory concentration) of the compounds:
as §5
The formula for calculating cell phosphorylation inhibition rate (% inhibition rate) was: […]

[5] = target: T5, ITK (Homo sapiens, UniProt Q08881); test: HTRF kinase activity inhibition assay, ITK; assay type: biochemical; settings: HTRF TK kit
T5 construct: purchased Carna 08-181
T5 sequence (Q08881 1-620): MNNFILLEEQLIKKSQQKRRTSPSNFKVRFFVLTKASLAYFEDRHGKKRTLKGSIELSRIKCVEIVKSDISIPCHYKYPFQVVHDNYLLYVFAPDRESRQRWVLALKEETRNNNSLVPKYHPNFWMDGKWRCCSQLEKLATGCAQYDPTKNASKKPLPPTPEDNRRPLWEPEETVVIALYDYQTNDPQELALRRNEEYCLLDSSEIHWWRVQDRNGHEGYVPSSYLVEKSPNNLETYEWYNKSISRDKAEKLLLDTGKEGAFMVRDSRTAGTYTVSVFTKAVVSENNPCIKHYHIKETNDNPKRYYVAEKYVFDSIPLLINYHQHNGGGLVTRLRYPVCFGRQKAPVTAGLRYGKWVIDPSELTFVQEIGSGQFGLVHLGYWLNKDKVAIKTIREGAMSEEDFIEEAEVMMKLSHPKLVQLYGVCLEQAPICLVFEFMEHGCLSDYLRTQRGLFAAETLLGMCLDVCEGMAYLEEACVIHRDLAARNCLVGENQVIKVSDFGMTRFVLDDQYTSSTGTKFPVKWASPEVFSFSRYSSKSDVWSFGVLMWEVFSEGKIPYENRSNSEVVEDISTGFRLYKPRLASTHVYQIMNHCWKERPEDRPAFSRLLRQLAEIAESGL
Text: as §1, §2, §3, §4, §5, §6

T1 sequence (Q06187 whole entry): as the sequence (Q06187 whole entry) above

| Structure (SMILES) | IC50 [1] | IC50 [2] | IC50 [3] | IC50 [4] | IC50 [5] |
| --- | --- | --- | --- | --- | --- |
| COc1ccc(F)cc1C(=O)NCc1ccc(-c2nn(C3CCC(O)C3)c3ncnc(N)c23)cc1 (single isomer, unassigned) [Example 33, N-(4-(4-amino-1-(3-hydroxycyclopentanyl)-1H-pyrazolo[3,4-d]pyrimidin-3-yl)benzyl)-5-fluoro-2-methoxybenzamide] | ≤ 10 nM | 100 to 1000 nM | 50 to 100 nM | ≤ 25 nM | > 10 µM |
| COc1ccc(F)cc1C(=O)NCc1ccc(-c2nn(C3CCC(O)C3)c3ncnc(N)c23)cc1 (single isomer, unassigned) [Example 36, N-(4-(4-amino-1-(3-hydroxycyclopentanyl)-1H-pyrazolo[3,4-d]pyrimidin-3-yl)benzyl)-5-fluoro-2-methoxybenzamide] | ≤ 10 nM | 100 to 1000 nM | 1000 to 10000 nM | ≤ 25 nM | > 10 µM |
| COc1ccc(F)cc1C(=O)NCc1ccc(-c2nn(C3CCC(O)C3)c3ncnc(N)c23)cc1 (single isomer, unassigned) [Example 34, N-(4-(4-amino-1-(3-hydroxycyclopentanyl)-1H-pyrazolo[3,4-d]pyrimidin-3-yl)benzyl)-5-fluoro-2-methoxybenzamide] | ≤ 10 nM | 100 to 1000 nM | 50 to 100 nM | ≤ 25 nM | > 10 µM |
| COc1ccc(F)cc1C(=O)NCc1ccc(-c2nn(C3CCC(O)C3)c3ncnc(N)c23)cc1 (single isomer, unassigned) [Example 35, N-(4-(4-amino-1-(3-hydroxycyclopentanyl)-1H-pyrazolo[3,4-d]pyrimidin-3-yl)benzyl)-5-fluoro-2-methoxybenzamide] | ≤ 10 nM | 100 to 1000 nM | 50 to 100 nM | ≤ 25 nM | > 10 µM |
